From US8338422B2, “Indolin-2-ones and aza-indolin-2-ones” (Janssen Pharmaceutica NV, priority 2007, dated 2012) come the findings set out here.

Molecules are shown by their SMILES.

Experiment [1] addresses PLK4 (h) (Homo sapiens, UniProt O00444). Put plainly: PLK-4 human kinase assay (SPA). It is filed as biochemical. The settings on record: for IC50: read-out: PLK4 pIC50 (converted). In short, it runs like this:
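Radiometric readout: 33P-labelled peptide captured on streptavidin SPA beads after EDTA stop, imaged by Leadseeker. Reaction ran 60 min at room temperature in Hepes pH 8.0 buffer. It contained 1 μM ATP with 2 nM [γ-33P]ATP, 10 μM biotinylated peptide and PLK4 (h) at 19 μg/ml.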

Experiment [2] concerns the target AuroraB (h) (Homo sapiens, UniProt Q96GD4). Put plainly: Aurora-B human kinase assay (SPA). Particulars: for IC50: read-out: AuroraB pIC50 (converted). The format is biochemical. In outline:
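Scintillation proximity assay: AuroraB (h) at 0.5 μg/ml with 3 μM biotinylated peptide, 0.5 μM ATP and 2.2 nM [γ-33P]ATP in 60 mM Hepes pH 7.5, 3 mM MgCl2, 3 mM MnCl2, 2 mM DTT. 60 min at room temperature, EDTA stop, streptavidin PVT beads read on Leadseeker.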

The test system of experiment [3] is A2780. In words: Cellular proliferation assay (Alamar blue), A2780. The settings on record: Homo sapiens, A2780, 72 h, A2780 cells, 72 hours with compound, 10% FCS, read-out: pIC50 A2780 (converted). It is filed as cell-based. In outline:
(§1)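 Proliferation was assessed over 72 h of compound treatment, following 24 h of seeding without compound, under 10% FCS, 37° C. and 5% CO2. Fluorescent resazurin product was measured and compared with control cells.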

Experiment [4] deals with SKOV3. Put plainly: Cellular proliferation assay (Alamar blue), SKOV3. The format is cell-based. Particulars: 72 hours with compound, 10% FCS; for IC50: Homo sapiens, SK-OV-3, SKOV3 cells, read-out: pIC50 SKOV3 (converted); for pIC50 SKOV3: SKOV3 cells. On the procedure: (§2) […] functional properties of these compounds was tested in cellular proliferation assays on a panel of different cell lines in the presence of 10% FCS serum (37° C. and 5% (v/v) CO2). In a first step these cells were seeded and incubated for 24 hours in the absence of compound. In the second step the cells were incubated for 72 hours with the compounds to be tested for 72 hours. The viable cell number was finally assessed in a standard Alamar blue cell viability assay.
(§3) The viable cell number was assessed by incubation for either 4 h (HCT-116, H1299, H460) 6 h (SKOV3, HT29, U87-MG, Colo205) or 24 h (A2780, PC3, MDA-MB-231, A549, MCF-7) with Alamar blue (Resazurin 9 μg/ml, K-Ferrocyanide 90 μM K-Ferricyanide 90 μM) and the converted fluorescent product was quantified on a fluorescent plate readed (544 nm/590 nm). Effect of the compounds is calculated as of on control cells.

In experiment [5] the test system is HT-29. Put plainly: Cellular proliferation assay (Alamar blue), HT-29. It is filed as cell-based. The settings on record: HT-29 cells, 72 hours with compound, 10% FCS; for IC50: Homo sapiens, read-out: pIC50 HT-29 (converted). As to the method:
as §2, §3

The subject of experiment [6] is HCT-116. In words: Cellular proliferation assay (Alamar blue), HCT-116. It is filed as cell-based. Particulars: Homo sapiens, HCT-116, 72 h, HCT-116 cells, 72 hours with compound, 10% FCS, read-out: pIC50 HCT-116 (converted). In short, it runs like this: as §1
The test system of experiment [7] is Colo205. Put plainly: Cellular proliferation assay (Alamar blue), Colo205. The format is cell-based. The settings on record: 72 hours with compound, 10% FCS; for IC50: Homo sapiens, COLO 205, Colo205 cells, read-out: pIC50 Colo205 (converted); for pIC50 Colo205: Colo205 cells. As to the method:
as §2, §3

Experiment [8] relates to A549. In words: Cellular proliferation assay (Alamar blue), A549. It is filed as cell-based. The settings on record: A549 cells, 72 hours with compound, 10% FCS; for IC50: Homo sapiens, read-out: pIC50 A549 (converted). As to the method: as §2, §3
The test system of experiment [9] is H460. Put plainly: Cellular proliferation assay (Alamar blue), H460. It is filed as cell-based. The settings on record: 72 hours with compound, 10% FCS; for IC50: Homo sapiens, NCI-H460, H460 cells, read-out: pIC50 H460 (converted); for pIC50 H460: H460 cells. On the procedure: as §2, §3
Experiment [10] deals with MDA/MB231. Put plainly: Cellular proliferation assay (Alamar blue), MDA/MB231. Particulars: Homo sapiens, MDA-MB-231, 72 h, MDA/MB231 cells, 72 hours with compound, 10% FCS, read-out: pIC50 MDA/MB231 (converted). It is filed as cell-based. In short, it runs like this: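 Cells were grown in 10% FCS at 37° C. with 5% CO2, plated 24 h without compound, then exposed to compound for 72 h. Viability was measured by Alamar blue (resazurin 9 μg/ml) fluorescence at 544 nm/590 nm after 4 h (H460) or 24 h (MDA-MB-231) dye incubation, relative to control cells.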

Experiment [11] relates to MCF-7. Put plainly: Cellular proliferation assay (Alamar blue), MCF-7. The format is cell-based. The settings on record: 72 hours with compound, 10% FCS; for IC50: Homo sapiens, MCF7, MCF-7 cells, read-out: pIC50 MCF-7 (converted); for pIC50 MCF-7: MCF-7 cells. As to the method: as §2, §3
Experiment [12] deals with DU-145. In words: Cellular proliferation assay (Alamar blue), DU-145. The settings on record: DU-145 cells, 72 hours with compound, 10% FCS; for IC50: Homo sapiens, read-out: pIC50 DU-145 (converted). The format is cell-based. As to the method: as §2, §3
The subject of experiment [13] is A431. In words: Cellular proliferation assay (Alamar blue), A431. It is filed as cell-based. The settings on record: 72 hours with compound, 10% FCS; for IC50: Homo sapiens, A-431, A431 cells, read-out: pIC50 A431 (converted); for pIC50 A431: A431 cells. On the procedure: as §2, §3
The test system of experiment [14] is U87MG. Put plainly: Cellular proliferation assay (Alamar blue), U87MG. The format is cell-based. Particulars: Homo sapiens, U-87 MG, 72 h, U87MG cells, 72 hours with compound, 10% FCS, read-out: pIC50 U87MG (converted). In short, it runs like this:
as §1

Experiment [15] relates to PC-3. Put plainly: Cellular proliferation assay (Alamar blue), PC-3. It is filed as cell-based. Particulars: PC-3 cells, 72 hours with compound, 10% FCS; for IC50: Homo sapiens, PC-3, 72 h, read-out: pIC50 PC-3 (converted). In short, it runs like this:
as §1

In experiment [16] the test system is SK-N-SH. Put plainly: Cellular proliferation assay (Alamar blue), SK-N-SH. The settings on record: SK-N-SH cells, 72 hours with compound, 10% FCS; for IC50: Homo sapiens, read-out: pIC50 SK-N-SH (converted). The format is cell-based. As to the method: as §2, §3
In experiment [17] the target is GSK3β (h) (Homo sapiens, UniProt P49841). Put plainly: GSK-3β human kinase assay (SPA). The format is biochemical. In short, it runs like this:
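Radiometric SPA read-out: after EDTA stop, biotinylated 33P-labelled peptide bound streptavidin PVT beads and was imaged on Leadseeker. Reaction: 60 min, room temperature, GSK3β (h) at 1 μg/ml, 1 μM substrate peptide, 1 μM ATP with 2 nM [γ-33P]ATP, Tris pH 7.4/MgCl2/DTT buffer.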

In experiment [18] the target is CDK1/CyclinB (h) (Homo sapiens, UniProt P06493). In words: CDK1/CyclinB human kinase assay (FRET). The format is biochemical. In outline:
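Z'-LYTE FRET format: 0.2 μg/ml enzyme with 2 μM Ser/Thr peptide 12 and 10 μM ATP in 50 mM Hepes pH 7.5, 10 mM MgCl2, 1 mM EGTA, 0.01% Brij-35, 60 min at room temperature. Protease development 60 min; coumarin/fluorescein emission ratio (460/538 nm, excitation 390 nm) reports phosphorylation.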

Chain of AuroraB (h) (Q96GD4 whole entry): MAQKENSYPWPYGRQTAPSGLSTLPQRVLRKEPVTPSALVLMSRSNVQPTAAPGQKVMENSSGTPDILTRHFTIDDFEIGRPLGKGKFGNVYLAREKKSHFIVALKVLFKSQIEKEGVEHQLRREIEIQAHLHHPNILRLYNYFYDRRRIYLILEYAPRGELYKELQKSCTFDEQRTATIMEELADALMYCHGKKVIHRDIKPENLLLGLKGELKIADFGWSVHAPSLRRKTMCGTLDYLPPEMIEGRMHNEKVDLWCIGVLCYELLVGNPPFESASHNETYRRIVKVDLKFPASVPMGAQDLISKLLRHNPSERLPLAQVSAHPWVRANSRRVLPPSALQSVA
Chain of PLK4 (h) (O00444 whole entry): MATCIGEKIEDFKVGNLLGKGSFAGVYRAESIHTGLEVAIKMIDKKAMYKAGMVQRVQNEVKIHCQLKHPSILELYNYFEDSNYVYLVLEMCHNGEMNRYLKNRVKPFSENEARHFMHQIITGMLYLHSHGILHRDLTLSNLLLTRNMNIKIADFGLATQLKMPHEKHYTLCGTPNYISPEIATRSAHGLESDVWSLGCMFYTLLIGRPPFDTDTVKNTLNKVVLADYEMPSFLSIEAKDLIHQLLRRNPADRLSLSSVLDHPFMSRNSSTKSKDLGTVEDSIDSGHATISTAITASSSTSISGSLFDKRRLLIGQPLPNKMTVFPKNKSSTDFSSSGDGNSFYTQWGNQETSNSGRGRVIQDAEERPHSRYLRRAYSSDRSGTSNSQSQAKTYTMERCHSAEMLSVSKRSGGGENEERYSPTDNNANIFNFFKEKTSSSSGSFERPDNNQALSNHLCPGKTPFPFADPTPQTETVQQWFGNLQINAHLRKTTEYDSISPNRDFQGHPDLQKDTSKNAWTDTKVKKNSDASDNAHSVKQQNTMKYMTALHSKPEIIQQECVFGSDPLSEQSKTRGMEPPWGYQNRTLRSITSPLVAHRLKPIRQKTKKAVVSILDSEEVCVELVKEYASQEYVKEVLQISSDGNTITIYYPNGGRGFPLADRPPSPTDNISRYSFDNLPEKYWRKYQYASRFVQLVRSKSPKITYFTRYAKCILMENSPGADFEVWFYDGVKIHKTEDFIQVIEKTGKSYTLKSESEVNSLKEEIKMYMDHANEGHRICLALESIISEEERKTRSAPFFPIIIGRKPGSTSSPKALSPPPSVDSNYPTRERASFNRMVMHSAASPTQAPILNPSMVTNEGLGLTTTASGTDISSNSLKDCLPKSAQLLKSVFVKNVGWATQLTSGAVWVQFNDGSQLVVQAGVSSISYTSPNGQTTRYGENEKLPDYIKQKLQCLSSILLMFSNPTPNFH
Chain of GSK3β (h) (P49841 whole entry): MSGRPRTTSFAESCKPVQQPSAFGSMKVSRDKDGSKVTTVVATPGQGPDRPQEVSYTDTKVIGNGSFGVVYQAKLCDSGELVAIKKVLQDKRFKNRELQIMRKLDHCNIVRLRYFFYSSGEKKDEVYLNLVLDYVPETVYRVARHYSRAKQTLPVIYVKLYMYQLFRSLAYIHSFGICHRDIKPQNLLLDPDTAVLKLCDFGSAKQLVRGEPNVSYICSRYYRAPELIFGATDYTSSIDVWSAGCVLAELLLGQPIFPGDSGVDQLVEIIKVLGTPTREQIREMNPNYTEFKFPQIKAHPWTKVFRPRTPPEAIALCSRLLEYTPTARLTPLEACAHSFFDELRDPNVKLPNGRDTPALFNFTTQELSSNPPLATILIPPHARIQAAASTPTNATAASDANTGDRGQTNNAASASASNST
Chain of CDK1/CyclinB (h) (P06493 whole entry): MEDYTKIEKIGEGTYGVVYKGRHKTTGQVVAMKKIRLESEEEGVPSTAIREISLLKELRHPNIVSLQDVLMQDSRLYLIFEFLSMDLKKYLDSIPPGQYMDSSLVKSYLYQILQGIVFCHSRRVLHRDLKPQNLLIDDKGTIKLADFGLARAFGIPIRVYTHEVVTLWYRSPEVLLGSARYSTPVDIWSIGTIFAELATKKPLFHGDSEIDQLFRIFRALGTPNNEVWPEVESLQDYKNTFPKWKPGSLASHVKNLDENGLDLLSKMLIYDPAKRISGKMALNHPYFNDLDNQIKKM
Chain of CDK1/CyclinB (h) (P14635 whole entry partner): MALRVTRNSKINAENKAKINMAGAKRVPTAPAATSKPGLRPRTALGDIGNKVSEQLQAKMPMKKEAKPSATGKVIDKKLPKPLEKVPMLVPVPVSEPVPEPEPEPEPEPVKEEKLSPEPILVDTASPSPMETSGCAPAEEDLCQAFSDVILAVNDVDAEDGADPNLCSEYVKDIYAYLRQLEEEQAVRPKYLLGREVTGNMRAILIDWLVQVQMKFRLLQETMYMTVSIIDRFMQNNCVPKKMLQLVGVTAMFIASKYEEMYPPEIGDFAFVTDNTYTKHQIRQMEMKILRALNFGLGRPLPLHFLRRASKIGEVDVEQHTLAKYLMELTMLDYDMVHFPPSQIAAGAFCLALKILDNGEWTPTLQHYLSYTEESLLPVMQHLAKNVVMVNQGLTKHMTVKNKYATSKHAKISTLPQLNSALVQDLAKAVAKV

Consider `O=C1Nc2ncnc3c2C1=CNc1cc(ccc1Cl)OCCCCC(=O)N1CCN3CC1` (mixture of isomers) [Compound 13], for which the IC50 in experiment [1], in experiment [2], in [3], in [4], in experiment [5] and in experiment [6] was greater than 10 µM in each case. Besides, the IC50 in [7], in experiment [8], in experiment [9], in experiment [10], in experiment [11] and in [12] was greater than 10 µM throughout. The IC50 in experiment [13], in [14], in [15] and in experiment [16] was greater than 10 µM in each case.
In the case of `O=C1Nc2ncnc3c2C1=CNc1ccc(cc1)S(=O)(=O)NCCCCC(=O)N1CCN3CC1` (mixture of isomers) [Compound 15], the IC50 in [1] was 5.5 µM; in [2] it was greater than 10 µM; in experiment [3], greater than 10 µM; in [4] it was greater than 10 µM; in experiment [5], greater than 10 µM; in [6], greater than 10 µM. Moreover, the IC50 in experiment [7], in experiment [8], in experiment [9], in [10], in experiment [11] and in experiment [12] was greater than 10 µM in each case. In addition, the IC50 in experiment [13], in experiment [14], in experiment [15] and in experiment [16] was greater than 10 µM each time.
On to `CC(C)N1CCCC(=O)N2CCN(CC2)c2ncnc3c2C(=CNc2ccc(F)c(c2)C1)C(=O)N3` (mixture of isomers) [Compound 30], for which, in [1], the “PLK4 pIC50” value is less than 5. For the same compound, the “pIC50 SKOV3” value in experiment [4] is listed as less than 5. For the same compound, the “pIC50 HT-29” value in experiment [5] is less than 5. Besides, the “pIC50 Colo205” value in experiment [7] is less than 5. Besides, the “pIC50 A549” value in [8] is less than 5. For the same compound, the “pIC50 H460” value in experiment [9] is less than 5. Further, in experiment [11], the “pIC50 MCF-7” value is recorded as less than 5. For the same compound, the “pIC50 DU-145” value in experiment [12] is less than 5. Besides, the “pIC50 A431” value in experiment [13] is on record as less than 5. Also, in experiment [15], the “pIC50 PC-3” value is reported as less than 5. In addition, in experiment [16], the “pIC50 SK-N-SH” value was less than 5.
`COc1ccc2cc1OCCCC(=O)N(C(C)C)CCCCN(C)c1ncnc3c1C(=CN2)C(=O)N3` (mixture of isomers) [Compound 33]: the “PLK4 pIC50” value in experiment [1] is reported as 5.27. The “AuroraB pIC50” value in experiment [2] turned out to be 5. Also, in experiment [17], the “GSK3B pIC50” value worked out at 5.33. For the same compound, the “CDK1 pIC50” value in experiment [18] is 5.14. The “pIC50 SKOV3” value in [4] is on record as less than 5. The “pIC50 HT-29” value in [5] is on record as less than 5. Also, the “pIC50 Colo205” value in experiment [7] is recorded as less than 5. Moreover, the “pIC50 A549” value in experiment [8] is reported as less than 5. In addition, in experiment [9], the “pIC50 H460” value was less than 5. Besides, in [11], the “pIC50 MCF-7” value turned out to be 4.99. Besides, the “pIC50 DU-145” value in experiment [12] was less than 5. The “pIC50 A431” value in [13] is less than 5. The “pIC50 PC-3” value in experiment [15] is reported as less than 5. For the same compound, in experiment [16], the “pIC50 SK-N-SH” value came out at 5.27.
On to `COc1ccc2cc1OCCCC(=O)N1CCN(CC1)c1ncnc3c1/C(=C/N2)C(=O)N3` [Compound 17], for which the IC50 in [1] was 1.62 µM; in experiment [2], greater than 10 µM; in [3] it was greater than 10 µM; in experiment [4] it was 4.68 µM; in experiment [5] it was greater than 10 µM; in experiment [6], greater than 10 µM. The IC50 in experiment [7] was greater than 10 µM; in [8], 3.47 µM; in experiment [9] it was greater than 10 µM; in experiment [10], greater than 10 µM; in [11] it was 8.13 µM; in [12], greater than 10 µM. The IC50 was greater than 10 µM in experiment [13], 7.76 µM in experiment [14], 10.7 µM in experiment [15] and 3.31 µM in [16].
Turning to `CC(C)N1CCCCCC(=O)N2CCN(CC2)c2ncnc3c2/C(=C/Nc2ccc(F)c(c2)C1)C(=O)N3` [Compound 28], the IC50 in [1], in experiment [2], in experiment [17] (read-out: GSK3B pIC50 (converted)), in experiment [18] (read-out: CDK1 pIC50 (converted)), in [4] and in experiment [5] was greater than 10 µM each time. Further, the IC50 in experiment [7], in experiment [8], in [9], in experiment [11], in experiment [12] and in [13] was greater than 10 µM throughout. Besides, the IC50 in [15] and in [16] was greater than 10 µM in each case.
Turning to `COc1ccc2cc1OCCCC(=O)N(C(C)C)CCN(C)c1ncnc3c1/C(=C/N2)C(=O)N3` [Compound 32], the IC50 in experiment [1] is 1.05 µM; in [4], 3.31 µM; in [5], 2.51 µM; in [7], 2.04 µM; in experiment [8], 2.14 µM; in experiment [9] it was 2.34 µM. In addition, the IC50 is 1.58 µM in experiment [11]; 3.98 µM in experiment [12]; 1.32 µM in experiment [13]; 1 µM in [15]; 1.62 µM in [16].
